From patent US20230150970A1, “AMINOPYRIMIDINE DERIVATIVES AND THEIR USE AS ARYL HYDROCARBON RECEPTOR MODULATORS” (DONG-A ST CO., LTD., priority 2020, published 2023)

Molecular target: T1, AhR (Homo sapiens, UniProt P35869)
T1 sequence (P35869 11-848): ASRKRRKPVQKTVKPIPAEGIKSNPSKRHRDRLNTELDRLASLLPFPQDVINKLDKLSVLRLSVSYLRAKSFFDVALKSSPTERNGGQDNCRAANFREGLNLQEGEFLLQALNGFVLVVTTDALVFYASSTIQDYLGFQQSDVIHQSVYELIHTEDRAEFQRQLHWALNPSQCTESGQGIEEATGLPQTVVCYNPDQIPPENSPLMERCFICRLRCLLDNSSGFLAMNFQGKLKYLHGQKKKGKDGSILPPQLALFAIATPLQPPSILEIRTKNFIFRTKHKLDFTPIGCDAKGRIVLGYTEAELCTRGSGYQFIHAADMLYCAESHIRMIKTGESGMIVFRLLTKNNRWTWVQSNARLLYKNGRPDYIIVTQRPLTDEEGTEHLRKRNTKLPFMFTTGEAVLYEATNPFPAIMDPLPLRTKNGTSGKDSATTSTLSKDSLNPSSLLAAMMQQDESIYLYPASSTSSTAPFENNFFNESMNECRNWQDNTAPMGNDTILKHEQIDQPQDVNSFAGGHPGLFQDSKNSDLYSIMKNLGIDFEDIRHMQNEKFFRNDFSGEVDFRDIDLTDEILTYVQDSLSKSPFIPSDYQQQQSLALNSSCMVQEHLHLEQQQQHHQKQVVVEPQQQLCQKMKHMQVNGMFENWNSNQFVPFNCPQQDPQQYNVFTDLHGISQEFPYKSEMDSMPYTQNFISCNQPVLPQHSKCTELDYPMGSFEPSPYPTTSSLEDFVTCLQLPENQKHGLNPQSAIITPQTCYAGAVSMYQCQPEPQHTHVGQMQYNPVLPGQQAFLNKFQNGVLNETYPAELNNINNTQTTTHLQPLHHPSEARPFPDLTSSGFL
Assay: In Vitro Assay 1: XRE-luciferase reporter assay, antagonism in human cell line (HepG2)
Conditions: Assay 1: AhR-Luc Human Antagonism (IC50, nM), unmarked values: kynurenine 200 μM, 6 hours

Question: `OCC1CCN(c2cc(-c3cncc(F)c3)nc(-c3cccnc3)n2)CC1` [Example 294, (1-(6-(5-fluoropyridin-3-yl)-2-(pyridin-3-yl)pyrimidin-4-yl)piperidin-4-yl)methanol] was tested. Which IC50 did it give?
Answer: Its IC50 is 100 to 1000 nM.

Question: `Oc1ncccc1-c1nc(-c2ccc(N3CCOCC3)nc2)cc(N2CC[C@H](O)C2)n1` [Example 295, (S)-3-(4-(3-hydroxypyrrolidin-1-yl)-6-(6-morpholinopyridin-3-yl)pyrimidin-2-yl)pyridin-2-ol] was tested. Which IC50 did it give?
Answer: Its IC50 is over 1000 nM.

Question: `O=[N+]([O-])c1cc(-c2cc(N3CC[C@H](O)C3)nc(-c3cccnc3)n2)ccc1F` [Example 296, (S)-1-(6-(4-fluoro-3-nitrophenyl)-2-(pyridin-3-yl)pyrimidin-4-yl)pyrrolidin-3-ol] was tested. Which IC50 did it give?
Answer: The IC50 was over 1000 nM.

Question: `O=[N+]([O-])c1cc(-c2cc(N3CC[C@H](O)C3)nc(-c3cccnc3)n2)ccc1N1CCOCC1` [Example 297, (S)-1-(6-(4-morpholino-3-nitrophenyl)-2-(pyridin-3-yl)pyrimidin-4-yl)pyrrolidin-3-ol] was tested. Which IC50 did it give?
Answer: Its IC50 is over 1000 nM.

Question: For `Nc1cc(-c2cc(N3CC[C@H](O)C3)nc(-c3cccnc3)n2)ccc1N1CCOCC1` [Example 298, (S)-1-(6-(3-amino-4-morpholinophenyl)-2-(pyridin-3-yl)pyrimidin-4-yl)pyrrolidin-3-ol], which IC50 is on record?
Answer: Its IC50 is 10 to 100 nM.

Question: `CC(=O)Nc1cc(-c2cc(N3CC[C@H](O)C3)nc(-c3cccnc3)n2)ccc1N1CCOCC1` [Example 299, (S)—N-(5-(6-(3-hydroxypyrrolidin-1-yl)-2-(pyridin-3-yl)pyrimidin-4-yl)-2-morpholinophenyl)acetamide] was tested. Which IC50 did it give?
Answer: Its IC50 is over 1000 nM.

Question: For `O[C@H]1CCN(c2cc(-c3ccc(F)nc3)nc(-c3cccnc3)n2)C1` [Example 300, (S)-1-(6-(6-fluoropyridin-3-yl)-2-(pyridin-3-yl)pyrimidin-4-yl)pyrrolidin-3-ol], which IC50 is on record?
Answer: Its IC50 is 100 to 1000 nM.

Question: Which IC50 does the source give for `CN(C)CCNc1ccc(-c2cc(N3CC[C@H](O)C3)nc(-c3cccnc3)n2)cn1` [Example 301, (S)-1-(6-(6-((2-(dimethylamino)ethyl)amino)pyridin-3-yl)-2-(pyridin-3-yl)pyrimidin-4-yl)pyrrolidin-3-ol] here?
Answer: The IC50 was 100 to 1000 nM.

Question: With `CC1CN(c2ccc(-c3cc(N4CC[C@H](O)C4)nc(-c4cccnc4)n3)cn2)CC(C)O1` (stereo partly drawn) [Example 302, (3S)-1-(6-(6-(2,6-dimethylmorpholino)pyridin-3-yl)-2-(pyridin-3-yl)pyrimidin-4-yl)pyrrolidin-3-ol] as the molecule, how does the IC50 read?
Answer: The IC50 was over 1000 nM.

Question: For `O=S(=O)(CCO)N1CCN(c2cc(-c3ccc(Cl)cc3O)nc(-c3cccnc3)n2)CC1` [Example 303, 5-chloro-2-(6-(4-((2-hydroxyethyl)sulfonyl)piperazin-1-yl)-2-(pyridin-3-yl)pyrimidin-4-yl)phenol], which IC50 is on record?
Answer: The IC50 was under 10 nM.

Question: Which IC50 does the source give for `Oc1cc(Cl)ccc1-c1cc(N2CC[C@H](O)C2)nc(-c2cccnc2O)n1` [Example 304, (S)-3-(4-(4-chloro-2-hydroxyphenyl)-6-(3-hydroxypyrrolidin-1-yl)pyrimidin-2-yl)pyridin-2-ol] here?
Answer: Its IC50 is under 10 nM.

Question: `Nc1ccc(-c2cc(N3CC[C@H](O)C3)nc(-c3cccnc3)n2)cc1` [Example 305, (S)-1-(6-(4-aminophenyl)-2-(pyridin-3-yl)pyrimidin-4-yl)pyrrolidin-3-ol] was tested. Which IC50 did it give?
Answer: The IC50 was over 1000 nM.

Question: How did the IC50 turn out when `C=CS(=O)(=O)N1CCN(c2cc(-c3ccc(Cl)cc3)nc(-c3cccnc3)n2)CC1` [Example 306, 4-(4-chlorophenyl)-2-(pyridin-3-yl)-6-(4-(vinylsulfonyl)piperazin-1-yl)pyrimidine] was run?
Answer: The IC50 was 10 to 100 nM.

Question: `OCC1CCN(c2cc(-c3ccc(Cl)cc3Cl)nc(-c3cccnc3)n2)CC1` [Example 307, (1-(6-(2,4-dichlorophenyl)-2-(pyridin-3-yl)pyrimidin-4-yl)piperidin-4-yl)methanol] was tested. Which IC50 did it give?
Answer: The IC50 was 10 to 100 nM.

Same assay, conditions: read-out: Assay 1: AhR-Luc Human Antagonism (IC50), unmarked values: kynurenine 200 μM, 6 hours

Question: For `Cn1ccc(-c2cc(N3CCC(CO)CC3)nc(-c3cccnc3)n2)n1` [Example 293, 4 (1-(6-(1-methyl-1H-pyrazol-3-yl)-2-(pyridin-3-yl)pyrimidin-4-yl)piperidin-4-yl)methanol], which IC50 is on record?
Answer: The IC50 was over 1000 nM.
